Assay results published in patent US11130740B2, “Substituted 2,3-dihydro-1H-indene analogs and methods using same” (Arbutus Biopharma Corporation, priority 2017, dated 2021).

Target: PD-L1 His protein / PD-1 Fc protein (Homo sapiens (Human), UniProt Q9NZQ7)
Assay: HTRF assay (PD-1/PD-L1 interaction)
Assay type: binding
Details: PD-L1 His 6 nM, PD-1 Fc 6 nM; inhibitors diluted 3-fold from 20 μM
Experimental: PD-L1 His protein was prepared and added at the final concentration of 6 nM in the White opaque 384 well plate (Corning cat #3824BC). PD-L1 small molecule inhibitors were diluted by 3-fold starting from 20 μM and a final concentration of 0.001 μM and added to the well. PD-1 Fc protein was added at the final concentration of 6 nM. PD-L1 His protein, PD-L1 small molecule inhibitors, and PD1 Fc proteins were added to the well in this order, with each 5 μl volume, and were incubated for 15 minutes at room temperature. PAb anti-Human IgG-XL665 (Cisbio, cat #61HFCXLA) and Mab anti-6HIS Tb cryptate Gold (Cisbio, cat #61HI2TLA) were mixed at 6.7 nM and 0.35 nM respectively, and total 5 μl volume of mixture was added to the well and incubated at room temperature for 1 hour. The plate was read using PerkinElmer Envision plate reader and data was analyzed by Prism 6 software.

Sequence of PD-L1 His protein / PD-1 Fc protein (Q9NZQ7 19-238): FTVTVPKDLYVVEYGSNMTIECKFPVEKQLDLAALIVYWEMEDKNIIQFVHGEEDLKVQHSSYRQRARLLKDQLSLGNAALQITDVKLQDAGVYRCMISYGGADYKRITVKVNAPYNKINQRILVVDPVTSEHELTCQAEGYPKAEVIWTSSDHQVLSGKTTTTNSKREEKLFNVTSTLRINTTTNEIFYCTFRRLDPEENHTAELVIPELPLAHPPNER

Structure (SMILES)	IC50 [µM]
CC(=O)NCCN[C@H]1c2ccc(OCc3cccc(-c4ccccc4)c3C)cc2C[C@@H]1O [Compound 10A_2, N-(2-(((1S,2S)-2-hydroxy-5-((2-methyl-[1,1′-biphenyl]-3-yl)methoxy)-2,3-dihydro-1H-inden-1-yl)amino)ethyl)acetamide]	0.204
CC(=O)NCCN[C@@H]1c2ccc(OCc3cccc(-c4ccccc4)c3C)cc2C[C@H]1O [Compound 10A_2_1, N-(2-(((1R,2R)-2-hydroxy-5-((2-methyl-[1,1′-biphenyl]-3-yl)methoxy)-2,3-dihydro-1H-inden-1-yl)amino)ethyl)acetamide]	5
CC(=O)NCCN[C@H]1c2ccc(OCc3cccc(-c4ccccc4)c3C)cc2C[C@@H]1O [Compound 10A_2_2, N-(2-(((1S,2S)-2-hydroxy-5-((2-methyl-[1,1′-biphenyl]-3-yl)methoxy)-2,3-dihydro-1H-inden-1-yl)amino)ethyl)acetamide]	0.17
CC(=O)NCCN[C@@H]1c2ccc(OCc3cccc(-c4ccccc4)c3C)cc2C[C@@H]1O [Compound 10A_l, N-(2-(((1R,2S)-2-hydroxy-5-((2-methyl-[1,1′-biphenyl]-3-yl)methoxy)-2,3-dihydro-1H-inden-1-yl)amino)ethyl)acetamide]	1.08
CC(=O)NCCN[C@H]1c2ccc(OCc3cccc(-c4ccccc4)c3C)cc2C[C@H]1O [Compound 10A_l_1, N-(2-(((1S,2R)-2-hydroxy-5-((2-methyl-[1,1′-biphenyl]-3-yl)methoxy)-2,3-dihydro-1H-inden-1-yl)amino)ethyl)acetamide]	0.863
CC(=O)NCCN[C@@H]1c2ccc(OCc3cccc(-c4ccccc4)c3C)cc2C[C@@H]1O [Compound 10A_l_2, N-(2-(((1R,2S)-2-hydroxy-5-((2-methyl-[1,1′-biphenyl]-3-yl)methoxy)-2,3-dihydro-1H-inden-1-yl)amino)ethyl)acetamide]	5.09
CC(=O)NCCN[C@@H]1c2ccc(OCc3cccc(-c4ccc5c(c4)OCCO5)c3C)cc2C[C@@H]1O [Compound 10B_1, N-(2-(((1R,2S)-5-((3-(2,3-dihydrobenzo[b][1,4]dioxin-6-yl)-2-methylbenzyl)oxy)-2-hydroxy-2,3-dihydro-1H-inden-1-yl)amino)ethyl)acetamide]	3.14
Cc1c(COc2ccc3c(c2)C[C@H](O)[C@H]3NCCS(C)(=O)=O)cccc1-c1ccccc1 [Compound 10C_2, (1S,2S)-5-((2-methyl-[1,1′-biphenyl]-3-yl)methoxy)-1-((2-(methylsulfonyl)ethyl)amino)-2,3-dihydro-1H-inden-2-ol]	> 20
Cc1c(COc2ccc3c(c2)C[C@H](O)[C@@H]3NCCS(C)(=O)=O)cccc1-c1ccccc1 [Compound 10C_l, (1R,2S)-5-((2-methyl-[1,1′-biphenyl]-3-yl)methoxy)-1-((2-(methylsulfonyl)ethyl)amino)-2,3-dihydro-1H-inden-2-ol]	> 20
Cc1c(COc2ccc3c(c2)C[C@H](O)C3NCCN2CCN(C)CC2)cccc1-c1ccccc1 (stereo partly drawn) [Compound 10D, (2S)-5-((2-methyl-[1,1′-biphenyl]-3-yl)methoxy)-1-((2-(4-methylpiperazin-1-yl)ethyl)amino)-2,3-dihydro-1H-inden-2-ol]	5.15
Cc1c(COc2ccc3c(c2)C[C@H](O)[C@@H]3NCCN2CCOCC2)cccc1-c1ccccc1 [Compound 10E_1, (1R,2S)-5-((2-methyl-[1,1′-biphenyl]-3-yl)methoxy)-1-((2-morpholinoethyl)amino)-2,3-dihydro-1H-inden-2-ol]	7.78
Cc1c(COc2ccc3c(c2)C[C@H](O)[C@H]3NCCN2CCOCC2)cccc1-c1ccccc1 [Compound 10E_2, (1S,2S)-5-((2-methyl-[1,1′-biphenyl]-3-yl)methoxy)-1-((2-morpholinoethyl)amino)-2,3-dihydro-1H-inden-2-ol]	1.08
Cc1c(COc2ccc3c(c2)C[C@H](O)[C@@H]3NCCO)cccc1-c1ccccc1 [Compound 10F_1, (1R,2S)-1-((2-hydroxyethyl)amino)-5-((2-methyl-[1,1′-biphenyl]-3-yl)methoxy)-2,3-dihydro-1H-inden-2-ol]	1.32
Cc1c(COc2ccc3c(c2)C[C@H](O)[C@H]3NCCO)cccc1-c1ccccc1 [Compound 10F_2, (1S,2S)-1-((2-hydroxyethyl)amino)-5-((2-methyl-[1,1′-biphenyl]-3-yl)methoxy)-2,3-dihydro-1H-inden-2-ol]	1.17
CC(=O)NCCNC1COc2cc(OCc3cccc(-c4ccccc4)c3C)ccc21 (stereo not drawn) [Compound 16A, N-(2-((6-((2-methyl-[1,1′-biphenyl]-3-yl)methoxy)-2,3-dihydrobenzofuran-3-yl)amino)ethyl)acetamide]	3.6
CC(=O)NCCNC1COc2cc(OCc3cccc(-c4ccc5c(c4)OCCO5)c3C)ccc21 (stereo not drawn) [Compound 16B, N-(2-((6-((3-(2,3-dihydrobenzo[b][1,4]dioxin-6-yl)-2-methylbenzyl)oxy)-2,3-dihydrobenzofuran-3-yl)amino)ethyl)acetamide]	3.8
CC(=O)NCCNC1CCc2cc(OCc3cccc(-c4ccccc4)c3C)ccc21 (stereo not drawn) [Compound 16C, N-(2-((5-((2-methyl-[1,1′-biphenyl]-3-yl)methoxy)-2,3-dihydro-1H-inden-1-yl)amino)ethyl)acetamide]	0.379
CC(=O)NCCNC1CCc2cc(OCc3cccc(-c4ccc5c(c4)OCCO5)c3C)ccc21 (stereo not drawn) [Compound 16D, N-(2-((5-((3-(2,3-dihydrobenzo[b][1,4]dioxin-6-yl)-2-methylbenzyl)oxy)-2,3-dihydro-1H-inden-1-yl)amino)ethyl)acetamide]	0.323
